The results in this text go back to US6960559B1, “Neurite growth regulatory factors” (University of Zurich, priority 1988, dated 2005).

In one experiment the test system is cbz-FAF[^125I]Y-NH2. The experiment is described as follows: Degradation of cbz-FAF[125I]Y-NH2 by defined proteases and C6 cell fractions. Format: biochemical. How it is done:
Preparation of plasma membrane from C6 cells was performed according to (Raper and Kapfhammer, 1990, Neuron 2:21-29) with some modifications. Briefly, C6 cells were cultured in 30 culture dishes (13.5 cm diameter). At confluency, the culture medium was removed and the cell layers were frozen to −20° C. All subsequent manipulations were performed at 4° C.: cell debris were collected using a rubber policeman in 100 ml CMF-Hank's and further homogenized by 10 strokes in a Dounce homogenizer with teflon plunger. A small aliquot of this suspension was stored at −20° C. and used later (homogenate-fraction). The nuclear pellet was obtained by low speed centrifugation (10 min, 1000×g) in a Sorvall S22 rotor and stored at […] A crude vesicular fraction was obtained by centrifugating the nuclear supernatant in a Sorvall S22 rotor (20,000×g, 30 min), and was resuspended in 10 ml CMF-Hank's. After adding 20 ml 2.25 M sucrose in CMF-Hank's, this suspension was loaded on 4×8 ml 2.25 M sucrose in CMF-Hank's and centrifuged at 80,000×g for 1 h in a Beckman SW28 motor. Plasma membranes were harvested at the top and the mitochondrial fraction at the interphase of this 2 step gradient. Both fractions were diluted 10× with CMF-Hank's and pelleted (Beckman TI80, 22,000×g, 30 min). The two pellets were resuspended in 2 ml MEMα (1.3 mg protein/ml) supplemented with 0.5 mM DTT and stored at −20° C.
(§1) For most experiments, 70-80% confluent cell layers (1 cm^2 wells, 100 μl MEMα) or 2-5 μg C6 plasma membrane (100 μl MEMα) were used. Reactions were started by the addition of 10 μl cbz-FAF[^125I]Y-NH2 (SEQ ID NO:2) (2 μM in MEMα, 10,000-30,000 cpm). If indicated, cell layers or plasma membrane suspensions were preincubated for 30 min with protease blockers or peptides. NEM or iodacetamide incubations of plasma membranes were performed at pH 8.5. The incubation was stopped by loading a 10 μl aliquot of the incubation medium on a thin layer chromatography plate (10 cm height, Kieselgel 60 F254, MERCK, Germany) and air dried. Thin layer chromatography was routinely run with CHCl3:CH3OH:CH3COOH 32% (5:3:1). Plates were then air dried and exposed on Kodak X-OMAT films (NY, USA) with an intensifying screen. To identify the degradation products on thin-layer chromatography, we run reference peptides under the same conditions.
For the quantification of the activity, the reaction was stopped by addition of an equal volume of chloroform. This simple procedure allowed us to separate an organic phase containing the unreacted substrate cbz-FAF[^125I]Y-NH2 and an aqueous phase containing the charged degradation products (see also FIG. 30). Activity is expressed as % radioactivity contained in the aqueous phase. 100% is the sum of the radioactivity of both phases.

A further experiment has as its system C6 cells. The experiment is described as follows: C6 cell spreading on CNS myelin or PLYS with protease inhibitors. Particulars: for Inhibition on CNS (%): C6 cells, spreading on PLYS minus spreading on CNS myelin; for Effect on C6 cell spreading on CNS myelin, in words: Section 9. Format: cell-based, rat. The protocol:
Rat C6, mouse NIH 3T3 and B16 cells were cultured in Dulbecco's modified Eagle's medium (DMEM) supplemented with 10% fetal calf serum (FCS), usually to maximally 70-80% confluency. Cells were harvested with a short trypsin treatment (0.1% in Ca^2+/Mg^2+-free Hank's medium for 90 seconds) stopped by addition of FCS in excess, collected by centrifugation. Cells were resuspended in either DMEM/FCS or defined serum-free medium (MEM) and used for experiments. Dissociated rat CNS glial cells were prepared starting from optic nerves of 6-7 days old Lewis rats as described in Section 6.1.1, supra and plated into poly-D-lysine (PLYS) coated wells (100 mm^2, 100 μl medium) at a density of 20,000 cells per well. The culture medium was an enriched L15 medium with 5% rat serum, penicillin and streptomycin. C6, 3T3 and B16 cells were added to 2 day old cultures at a concentration of 30,000 cells per well, incubated for two hours and fixed with warm 4% formalin in phosphate buffer. Inhibitory oligodendrocytes were identified by double labelling using the specific antibodies O1 and O4 (see Section 6.1.3, supra).
Myelin from rat spinal cord (CNS) or sciatic nerve (PNS) purified on a discontinuous sucrose gradient as described in Section 6.1.5., was dried overnight onto PLYS coated wells (20 μg protein/well of 100 mm^2 surface). Unbound membranes were removed by three washes with Ca^2+/Mg^2+-free Hank's solution. Myelin coated wells were immediately used in substrate testing assays by the addition of 9,000 cells (C6, 3T3, or B16) per cm^2. Alternatively, we used extracted CNS myelin protein, or SDS-PAGE purified 35 and 250 kD inhibitory proteins reconstituted in liposomes (see Section 7.1.5, supra). Experiments were scored at different time points using a phase contrast microscope equipped with a photocamera. Quantifications were done using a surface integration program; three arbitrary fields were photographed for each well at a magnitude of 80×, at least 25 cells per picture were measured. Each point represents the mean of at least 3 wells±SEM. Results are expressed as μ^2 of projected cell surface, or as degree, which was calculated by subtracting from the projected surface value of a spreading cell, the surface value of a completely spheric cell.

The subject of experiment [1] is C6 plasma membrane associated metalloendoprotease. The experiment is described as follows: Enzyme assay: cbz-FAF[125I]Y-NH2 degradation by C6 plasma membranes with protease blockers. Format: biochemical, rat. How it is done:
as §1, with “Reactions were started by the addition of 10 μl cbz-FAF[^125I]Y-NH2 (SEQ ID NO:2) (2 μM in MEMα, 10,000-30,000 cpm).” left out, “Thin layer chromatography was routinely run with CHCl3:CH3OH:CH3COOH 32% (5:3:1).” left out
For the quantification of the activity, the reaction was stopped by addition of an equal volume of chloroform. […] Activity is expressed as % radioactivity contained in the aqueous phase. 100% is the sum of the radioactivity of both phases.

Another experiment relates to C6 glioblastoma cells. The experiment is described as follows: cells. Particulars: for IC50: 2 h. Format: cell-based, rat. How it is done:
Rat C6 glioblastoma cells (Benda et al., 1968, Science 161:370-371) were cultured in Dulbecco's modified Eagle's medium (DMEM) supplemented with 10% fetal calf serum (FCS), usually to maximally 70-80% confluency (Paganetti et al., 1988, J. Cell Biol. 107:2281-2291). All cell culture media were routinely supplemented with penicillin and streptomycin. Cells were harvested by a short trypsin treatment (0.1% in Ca^2+/Mg^2+-free [CMF] PBS/EDTA solution for 90 seconds) followed by addition of DMEM/10% FCS and centrifugation (600×g, 6 min). The cell pellet was rinsed with 5 ml DMEM/10% FCS and centrifuged. For cell spreading assays, cells were resuspended at 10^6/ml in defined serum-free medium (MEMα) supplemented with 0.2 μg/ml insulin, 0.5 μg/ml transferrin and 0.12 μg/ml bovine serum albumin (BSA). Protease blockers or peptides were added directly to the cell suspension from 10×solutions 10 min before plating.
Spinal cord myelin from young adult Lewis rats was purified on a discontinuous sucrose gradient (Colman et al., 1982, J. Cell Biol. 95:598-608; Schwab and Caroni, 1988, J. Neurosci. 8:2381-2393) and stored in 100 mM sucrose, 25 mM TRIS/HCl pH 7.4 at −80° C. up to 6 months. The myelin suspension ([…]) was incubated for 30 min on poly-D-lysine-coated wells (PLYS-wells). Unbound myelin membranes were removed by rinsing twice with CMF-Hank's and once with MEMα. Myelin-coated wells were used immediately for the spreading assay by adding 9'000 C6 cells per cm^2. Experiments were scored as described (Paganetti et al., 1988, J. Cell Biol. 107:2281-2291).

Setting [2] is: C6 cell spreading on CNS myelin, read-out: IC50 on CNS myelin.

Where “and” joins values, the source holds several entries; their conditions need not be identical. Equal entries are not always repeated. Where two headings read alike, the source gives them in different places. Where a SMILES comes first, the peptide text is derived from it. The star is where a group is joined. Cbz = O=C(OCc1ccccc1)*

Turning to trypsin, the “Amount necessary to degrade 50% of substrate in 30 min” value in the experiment with cbz-FAF[^125I]Y-NH2 (37° C., pH 7.4) was determined as 0.3 µg. For cathepsin D: acidic protease, the “Amount necessary to degrade 50% of substrate in 30 min” value with cbz-FAF[^125I]Y-NH2 (37° C., pH 7.4) was more than 100 µg; in the experiment with cbz-FAF[^125I]Y-NH2 (pH 4.0) it was 0.005 µg. Further, the “Amount giving half maximal activity on cbz-FAFY-NH2” value with cbz-FAF[^125I]Y-NH2 (pH 4.0) was found to be 5 ng. For the compound `CC(C)C[C@H](NP(=O)(O)O[C@@H]1O[C@@H](C)[C@H](O)[C@@H](O)[C@H]1O)C(=O)N[C@@H](Cc1c[nH]c2ccccc12)C(=O)O` [phosphoramidon], in the experiment with C6 cells, the “Inhibition on CNS (%)” value is on record as 9% and the “Effect on C6 cell spreading on CNS myelin, in words” value (shortened to “Effect … on CNS myelin, in words”) is “did not impair C6 cell spreading”. Besides, the “Effect on cbz-FAF[^125I]Y-NH2 degradation by C6 plasma membranes, in words” value (“Effect … by C6 plasma membranes, in words” below) in experiment [1] was “had no effect”. Turning to `COC(=O)[C@H](Cc1ccccc1)NC(=O)[C@H](Cc1ccccc1)NC(=O)CNC(=O)OCc1ccccc1` [cbz-GFF-OCH3] (Cbz-Gly-Phe-Phe-OMe), inhibition in the experiment on C6 glioblastoma cells was half-maximal at 5 µM (IC50). In addition, the “Effect … on CNS myelin, in words” value with C6 glioblastoma cells (Section 11) is “strong inhibition of cell spreading”.

As to `C[C@H](NC(=O)[C@@H](N)Cc1ccccc1)C(=O)N[C@@H](Cc1ccccc1)C(=O)N[C@@H](Cc1ccc(O)cc1)C(N)=O` [FAFY-NH2] (H-FAFY-NH2; N-terminus assumed), the half-maximal inhibitory concentration (IC50) with C6 glioblastoma cells (setting [2]) stood at 300 µM. `CCN1C(=O)C=CC1=O` [N-ethylmaleimide]: in experiment [1], the “Effect … by C6 plasma membranes, in words” value is given as “had no effect”. With `C[C@H](NC(=O)OCc1ccccc1)C(=O)N[C@@H](Cc1ccccc1)C(N)=O` [cbz-AF-NH2, carbobenzoxy-alanine-phenylalanine-amide], the half-inhibitory concentration (IC50) with C6 glioblastoma cells (setting [2]) was 600 µM. As for `CC(C)C[C@H](NC(=O)[C@@H](O)[C@H](N)Cc1ccccc1)C(=O)O` [bestatine], in the experiment with C6 cells, the “Inhibition on CNS (%)” value is on record as 0% and the “Effect … on CNS myelin, in words” value is on record as “did not impair C6 cell spreading”. Further, in experiment [1], the “Effect … by C6 plasma membranes, in words” value is “did not affect overall activity” and the “Effect on formation of Y-NH2 from cbz-FAF[^125I]Y-NH2, in words” value is on record as “specifically inhibited the formation of Y-NH2”. Take `C[C@H](NC(=O)[C@H](Cc1ccccc1)NC(=O)OCc1ccccc1)C(N)=O` [cbz-FA-NH2]: the IC50 in the experiment on C6 glioblastoma cells (setting [2]) was 600 µM.

With `NC(=O)CI` [iodacetamide], the “Effect … by C6 plasma membranes, in words” value in experiment [1] is recorded as “had no effect”. Consider Carboxymethyl-phe-leu [cm-phe-leu], for which, in the experiment on C6 cells, the “Inhibition on CNS (%)” value is recorded as 3% and the “Effect … on CNS myelin, in words” value is on record as “did not inhibit C6 cell spreading”. Besides, in experiment [1], the “Effect … by C6 plasma membranes, in words” value was “had no effect”. On to `CC(C)C[C@H](NC(=O)CNC(=O)OCc1ccccc1)C(=O)N[C@@H](Cc1ccccc1)C(N)=O` [cbz-GLF-NH2] (Cbz-Gly-Leu-Phe-NH2), for which inhibition with C6 glioblastoma cells was half-maximal at 5 µM (IC50). Turning to `C[C@H](NC(=O)OCc1ccccc1)C(=O)N[C@@H](Cc1ccccc1)C(=O)N[C@@H](Cc1ccc(O)cc1)C(N)=O` [cbz-AFY-NH2], the “Effect … on CNS myelin, in words” value with C6 glioblastoma cells (Section 11) is recorded as “strong inhibition of cell spreading”. As to `C[C@H](CS)C(=O)N1CCC[C@H]1C(=O)O` [Captopril], the “Effect … by C6 plasma membranes, in words” value in experiment [1] is on record as “had no effect”.

In the experiment with C6 glioblastoma cells, `O=C(CNC(=O)OCc1ccccc1)N[C@@H](Cc1ccccc1)C(=O)N[C@@H](Cc1ccccc1)C(=O)O` [cbz-GFF] (Cbz-Gly-Phe-Phe-OH; C-terminus assumed) showed a half-maximal inhibitory concentration (IC50) of 300 µM. For `O=S(=O)(F)Cc1ccccc1` [PMSF, Phenyl methyl sulfonyl fluoride], in the experiment on C6 cells, the “Inhibition on CNS (%)” value is reported as 6%. Also, in experiment [1], the “Effect … by C6 plasma membranes, in words” value is reported as “had no effect”.

On to collagenase, for which the “Amount necessary to degrade 50% of substrate in 30 min” value with cbz-FAF[^125I]Y-NH2 (37° C., pH 7.4) is 3 µg and 3.0 µg. In turn, `C[C@H](NC(=O)[C@H](Cc1ccccc1)NC(=O)OCc1ccccc1)C(=O)N[C@@H](Cc1ccccc1)C(=O)N[C@@H](Cc1ccc(O)cc1)C(N)=O` [cbz-FAFY-NH2, carbobenzoxy-Phe-Ala-Phe-Tyr-amide] (Cbz-FAFY-NH2) showed an IC50 with C6 glioblastoma cells of 3 µM. Also, in the experiment with C6 glioblastoma cells (Section 11), the “Effect … on CNS myelin, in words” value is “clearly impaired C6 cell spreading on CNS myelin” and the “Effect on C6 cell spreading on PLYS-coated wells, in words” value is on record as “had no effect on PLYS-coated wells”.
